Experimental data published in patent US8541573B2, “Substituted sulfonamide compounds” (Gruenenthal GmbH, priority 2008, dated 2013).

Assays:
[1] = molecular target: T1, human B1R (Homo sapiens, UniProt P46663); test: Functional investigation on the bradykinin 1 receptor (B1R), cell-based fluorescent calcium-mobilization assay (FLIPR/Novostar), human; settings: 10 μM test substance; CHO K1 cells stably transfected with human B1R gene; agonist Lys-Des-Arg9-bradykinin at EC80; % inhibition compared with maximum achievable inhibition; read-out: B1R antagonism, human [10 μM] % inhibition
T1 construct: expressed in transfected cells; host or cells: CHO K1 cells
T1 sequence (P46663 1-353): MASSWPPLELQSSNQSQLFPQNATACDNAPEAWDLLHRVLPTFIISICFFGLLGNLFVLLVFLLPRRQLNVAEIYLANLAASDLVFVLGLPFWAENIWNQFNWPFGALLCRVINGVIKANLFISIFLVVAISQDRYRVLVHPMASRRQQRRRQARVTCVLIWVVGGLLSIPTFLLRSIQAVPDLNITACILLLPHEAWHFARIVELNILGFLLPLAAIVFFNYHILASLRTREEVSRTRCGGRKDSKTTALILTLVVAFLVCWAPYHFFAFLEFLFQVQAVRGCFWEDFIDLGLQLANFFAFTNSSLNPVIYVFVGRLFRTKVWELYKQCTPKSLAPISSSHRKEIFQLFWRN
Description: (§1) The agonistic or antagonistic action of substances can be quantified on the bradykinin 1 receptor (B1R) of the human and rat species with ectopically expressing cell lines (CHO K1 cells) and with the aid of a Ca^2+-sensitive dyestuff (Fluo-4) in a fluorescent imaging plate reader (FLIPR). The figure in % activation is based on the Ca^2+ signal after addition of Lys-Des-Arg^9-bradykinin (0.5 nM) or Des-Arg^9-bradykinin (100 nM). Antagonists lead to a suppression of the Ca^2+ inflow after addition of the agonist. % inhibition compared with the maximum achievable inhibition is stated.
(§2) The agonistic or antagonistic action of substances can be determined on the bradykinin 1 receptor (B1R) of humans and rats by means of a cell-based flourescent calcium-mobilization assay. According to this assay agonist-induced increase of intracellular free Ca^2+ is quantified by means of a Ca^2+-sensitive dye (Fluo-4 type, Molecular Probes Europe BV, Leiden, Netherlands), in a Fluorescent Imaging Plate Reader (FLIPR, Molecular Devices, Sunnyvale, USA) and/or the Novostar (BMG Labtech GmbH, Offenburg, Germany).
(§3) Chinese hamster ovary cells (CHO K1 cells), which are stably transfected with the human B1R gene (hB1R cells) or with the B1R gene of rats (rB1R cells), are used. For functional investigations these cells are seeded into black 96-well plates with a clear bottom (BD Biosciences, Heidelberg, Germany or Greiner, Frickenhausen, Germany) in a density of 20,000-35,000 cells/well. The cells are incubated overnight in a humidified atmosphere at 37° C. and 5% CO2 in culture medium (hB1R cells: Nutrient Mixture Ham's F12, Gibco Invitrogen GmbH, Karlsruhe, Germany or DMEM, Sigma-Aldrich, Taufkirchen, Germany; rB1R cells: D-MEM/F12, Gibco Invitrogen GmbH, Karlsruhe, Germany) with 10 vol. % FBS (foetal bovine serum, Gibco Invitrogen GmbH, Karlsruhe, Germany).
(§4) On the following day the cells are loaded with the Ca^2+-sensitive dye Fluo-4-AM (Molecular Probes Europe BV, Leiden, Netherlands):
(§5) Method A: The medium of the cells is removed and cell plates are incubated with loading solution, which contains 2.13 μM Fluo-4-AM, 2.5 mM probenecid (Sigma-Aldrich, Taufkirchen, Germany), and 10 mM HEPES (Sigma-Aldrich, Taufkirchen, Germany) in HBSS buffer (Hank's buffered saline solution, Gibco Invitrogen GmbH, Karlsruhe, Germany) for 60 minutes at 37° C. After the plates are washed twice with HBSS buffer, HBSS buffer supplemented 0.1% BSA (bovine serum albumin; Sigma-Aldrich, Taufkirchen, Germany), 5.6 mM glucose and 0.05% gelatine (Merck KGaA, Darmstadt, Germany) is added. Cell plates are incubated for at least 20 minutes in the dark at room temperature before they are used for the Ca^2+ measurement in the FLIPR or Novostar.
(§6) Method B: The plates are washed with buffer A (15 mM HEPES, 80 mM NaCl, 5 mM KCl, 1.2 mM CaCl2, 0.7 mM MgSO4, 2 mg/ml glucose, 2.5 mM probenecid) and subsequently loaded with buffer A containing 2.4 μM Fluo-4-AM and 0.025% pluronic F127 (Sigma-Aldrich, Taufkirchen, Germany) for 60 minutes at 37° C. Cell plates are washed twice with buffer A. Then, buffer A supplemented with 0.05% BSA and 0.05% gelatine is added and cell plates are incubated in the dark at room temperature for at least 20 minutes before measurement in the FLIPR or Novostar is started.
(§7) The Ca^2+-dependent fluorescence is measured both before and after the addition of substances (λex=488 nm, λem=540 nm). For quantification of the effect the highest fluorescence intensity (FC, fluorescence counts) over time is given. The FLIPR protocol consists of two substance additions, done within the instrument while continuously monitoring the Ca^2+-dependent fluorescence at 540 nm. When the Novostar was used, one addition had to be done outside the instrument. Test substances (10 μM) are initially pipetted onto the cells and the intracellular Ca^2+ rise is compared with the control (hB1R: Lys-Des-Arg9-bradykinin>=50 nM; rB1R: Des-Arg9-bradykinin>=1 μM). […]

[2] = molecular target: T2, B1R of rats (Rattus norvegicus, UniProt P97583); test: Functional investigation on the bradykinin 1 receptor (B1R), cell-based fluorescent calcium-mobilization assay (FLIPR/Novostar), rat; settings: 10 μM test substance; CHO K1 cells stably transfected with rat B1R gene; agonist Des-Arg9-bradykinin at EC80; % inhibition compared with maximum achievable inhibition; read-out: B1R antagonism, rat [10 μM] % inhibition
T2 construct: expressed in transfected cells; host or cells: CHO K1 cells
T2 sequence (P97583 1-337): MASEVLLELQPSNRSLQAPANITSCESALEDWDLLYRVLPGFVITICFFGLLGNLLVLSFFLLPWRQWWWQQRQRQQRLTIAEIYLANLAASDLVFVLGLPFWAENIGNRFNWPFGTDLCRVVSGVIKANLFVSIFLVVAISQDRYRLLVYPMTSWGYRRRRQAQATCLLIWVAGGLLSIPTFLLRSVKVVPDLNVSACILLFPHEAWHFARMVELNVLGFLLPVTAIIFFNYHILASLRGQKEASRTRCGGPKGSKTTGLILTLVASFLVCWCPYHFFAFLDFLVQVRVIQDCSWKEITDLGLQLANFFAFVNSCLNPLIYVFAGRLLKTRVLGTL
Description: as §1, §2, §3, §4, §5, §6, §7

CN1CCN(C2(CNC(=O)Cc3ccccc3)CCN(C(=O)CC3CCCCN3S(=O)(=O)c3cccc(C(F)(F)F)c3)CC2)CC1 (stereo not shown) [Example 4, N-((4-(4-methylpiperazin-1-yl)-1-(2-(1-(3-(trifluoromethyl)phenylsulfonyl)piperidin-2-yl)acetyl)piperidin-4-yl)methyl)-2-phenylacetamide]
inhibition at 10 µM [1]: 67% | inhibition at 10 µM [2]: 59%

CC(=O)NCC1(N2CCN(C)CC2)CCN(C(=O)CCC2CCCCN2S(=O)(=O)c2cc(C)c(Cl)cc2C)CC1 (stereo not shown) [Example 2, N-((1-(3-(1-(4-chloro-2,5-dimethylphenylsulfonyl)piperidin-2-yl)propanoyl)-4-(4-methylpiperazin-1-yl)piperidin-4-yl)methyl)acetamide]
inhibition at 10 µM [1]: 81% | inhibition at 10 µM [2]: 74%

COc1cc(C)c(S(=O)(=O)N(C)CCOCC(=O)N2CCC(CNC(C)=O)(N3CCN(C)CC3)CC2)c(C)c1 [Example 31, N-((1-(2-(2-(4-methoxy-N,2,6-trimethylphenylsulfonamido)ethoxy)acetyl)-4-(4-methylpiperazin-1-yl)piperidin-4-yl)methyl)acetamide]
inhibition at 10 µM [1]: 103% | inhibition at 10 µM [2]: 101%

CN1CCN(C2(CNC(=O)c3cccnc3)CCN(C(=O)CC3CCCCN3S(=O)(=O)c3cccc(C(F)(F)F)c3)CC2)CC1 (stereo not shown) [Example 39, N-((4-(4-methylpiperazin-1-yl)-1-(2-(1-(3-(trifluoromethyl)phenylsulfonyl)-piperidin-2-yl)acetyl)piperidin-4-yl)methyl)nicotinamide]
inhibition at 10 µM [1]: 11% | inhibition at 10 µM [2]: 94%

CC(=O)NCC1(N2CCN(C)CC2)CCN(C(=O)COCC2CCc3ccccc3N2S(=O)(=O)c2ccc(Cl)c(Cl)c2)CC1 (stereo not shown) [Example 7, N-((1-(2-((1-(3,4-dichlorophenylsulfonyl)-1,2,3,4-tetrahydroquinolin-2-yl)methoxy)acetyl)-4-(4-methylpiperazin-1-yl)piperidin-4-yl)methyl)acetamide]
inhibition at 10 µM [1]: 102% | inhibition at 10 µM [2]: 105%

CC(=O)NCC1(N2CCN(c3ccncc3)CC2)CCN(C(=O)CC(NS(=O)(=O)c2ccc3ccccc3c2)c2ccccc2)CC1 (stereo not shown) [Example 14, N-((1-(3-(naphthalene-2-sulfonamido)-3-phenylpropanoyl)-4-(4-(pyridin-4-yl)piperazin-1-yl)piperidin-4-yl)methyl)acetamide]
inhibition at 10 µM [1]: 100% | inhibition at 10 µM [2]: 82%

CN1CCN(C2(CNC(=O)c3ccccn3)CCN(C(=O)CC(NS(=O)(=O)c3ccc4ccccc4c3)c3ccccc3)CC2)CC1 (stereo not shown) [Example 19, N-((4-(4-methylpiperazin-1-yl)-1-(3-(naphthalene-2-sulfonamido)-3-phenylpropanoyl)piperidin-4-yl)methyl)picolinamide]
inhibition at 10 µM [1]: 102% | inhibition at 10 µM [2]: 83%

COc1cc(C)c(S(=O)(=O)N(C)CCOCC(=O)N2CCC(CNC(=O)c3ccncc3)(N3CCN(C)CC3)CC2)c(C)c1 [Example 1, N-((1-(2-(2-(4-methoxy-N,2,6-trimethylphenylsulfonamido)ethoxy)acetyl)-4-(4-methylpiperazin-1-yl)piperidin-4-yl)methyl)isonicotinamide]
inhibition at 10 µM [1]: 107% | inhibition at 10 µM [2]: 101%

Cc1cc(S(=O)(=O)N2CCCCC2CCC(=O)N2CCC(CNC(=O)c3ccccc3)(N3CCN(C)CC3)CC2)c(C)cc1Cl (stereo not shown) [Example 6, N-((1-(3-(1-(4-chloro-2,5-dimethylphenylsulfonyl)piperidin-2-yl)propanoyl)-4-(4-methylpiperazin-1-yl)piperidin-4-yl)methyl)benzamide]
inhibition at 10 µM [1]: 99% | inhibition at 10 µM [2]: 24%

CN1CCN(C2(CNC(=O)c3ccncc3)CCN(C(=O)CC3CCCCN3S(=O)(=O)c3cccc(C(F)(F)F)c3)CC2)CC1 (stereo not shown) [Example 29, N-((4-(4-methylpiperazin-1-yl)-1-(2-(1-(3-(trifluoromethyl)phenylsulfonyl)-piperidin-2-yl)acetyl)piperidin-4-yl)methyl)isonicotinamide]
inhibition at 10 µM [1]: 67% | inhibition at 10 µM [2]: 33%

COc1cc(C)c(S(=O)(=O)N(C)CCOCC(=O)N2CCC(CNC(=O)c3ccncc3)(N3CCN(C)CC3)CC2)c(C)c1C [Example 51, N-((1-(2-(2-(4-Methoxy-N,2,3,6-tetramethylphenylsulfonamido)ethoxy)acetyl)-4-(4-methylpiperazin-1-yl)piperidin-4-yl)methyl)isonicotinamide]
inhibition at 10 µM [1]: 100% | inhibition at 10 µM [2]: 103%

Cc1cc(S(=O)(=O)N2CCCCC2CCC(=O)N2CCC(CNC(=O)Cc3ccccc3)(N3CCN(C)CC3)CC2)c(C)cc1Cl (stereo not shown) [Example 10, N-((1-(3-(1-(4-chloro-2,5-dimethylphenylsulfonyl)piperidin-2-yl)propanoyl)-4-(4-methylpiperazin-1-yl)piperidin-4-yl)methyl)-2-phenylacetamide]
inhibition at 10 µM [1]: 101% | inhibition at 10 µM [2]: 39%

COc1cc(C)c(S(=O)(=O)N(C)CCOCC(=O)N2CCC(CNC(=O)Cc3ccccc3)(N3CCN(C)CC3)CC2)c(C)c1 [Example 15, N-((1-(2-(2-(4-methoxy-N,2,6-trimethylphenylsulfonamido)ethoxy)acetyl)-4-(4-methylpiperazin-1-yl)piperidin-4-yl)methyl)-2-phenylacetamide]
inhibition at 10 µM [1]: 103% | inhibition at 10 µM [2]: 101%

CN1CCN(C2(CNC(=O)c3ccncc3)CCN(C(=O)CCCN(C)S(=O)(=O)c3cccc(C(F)(F)F)c3)CC2)CC1 [Example 54, N-((1-(4-(N-Methyl-3-(trifluoromethyl)phenylsulfonamido)butanoyl)-4-(4-methylpiperazin-1-yl)piperidin-4-yl)methyl)isonicotinamide]
inhibition at 10 µM [2]: 66%

COc1cc(C)c(S(=O)(=O)N2CCCCC2CCOCC(=O)N2CCC(CNC(=O)c3ccncc3)(N3CCN(C)CC3)CC2)c(C)c1 (stereo not shown) [Example 53, N-((1-(2-(2-(1-(4-Methoxy-2,6-dimethylphenylsulfonyl)piperidin-2-yl)ethoxy)acetyl)-4-(4-methylpiperazin-1-yl)piperidin-4-yl)methyl)isonicotinamide]
inhibition at 10 µM [2]: 102%
